Assay results from ChEMBL document CHEMBL1133947, “Synthesis and biological properties of new 1beta-methylcarbapenems containing heteroaromatic thioether moiety” (Bioorg Med Chem Lett, 2001).
Converted amounts (≈) assume the structure as drawn.

Experiments:
Enterobacter cloacae = test: In vitro antibacterial activity against Enterobacter cloacae 1321E; type: functional
Escherichia coli [1] = test: In vitro antibacterial activity against Escherichia coli 078; type: functional
Escherichia coli [2] = test: In vitro antibacterial activity against Escherichia coli 1507E; type: functional
Klebsiella aerogenes = test: In vitro antibacterial activity against Klebsiella aerogenes 1522E; type: functional
Pseudomonas aeruginosa [3] = test: In vitro antibacterial activity against Pseudomonas aeruginosa 1771M; type: functional
Salmonella typhimurium = test: In vitro antibacterial activity against Salmonella Typhimurium; type: functional, Salmonella enterica subsp. enterica serovar Typhimurium; conditions: Salmonella enterica
Staphylococcus aureus [4] = test: In vitro antibacterial activity against Staphylococcus aureus 285; type: functional
Staphylococcus aureus [5] = test: In vitro antibacterial activity against Staphylococcus aureus 503; type: functional
Staphylococcus aureus [6] = test: In vitro antibacterial activity against Staphylococcus aureus SG 511; type: functional
Streptococcus pyogenes = test: In vitro antibacterial activity against Streptococcus pyogenes 308A; type: functional
Sus scrofa = species: Sus scrofa; test: DHP-I stability of compound relative to t1/2 of hydrolysis to meropenem; type: functional; set-up: scale not given: the % may be the effect or the level left
Pseudomonas aeruginosa [7] = test: In vitro antibacterial activity against Pseudomonas aeruginosa 9027; type: functional
[8] = Half life of compound after iv administration of 20 mg/kg dose in rat; type: ADME, organism-based; set-up: dose 20 mg/kg, route intravenous; conditions: in vivo
[9] = Clearance of compound after iv administration of 20 mg/kg dose in rat; type: ADME, organism-based; set-up: dose 20 mg/kg, route intravenous; conditions: in vivo
[10] = Area under curve of compound after iv administration of 20 mg/kg dose in rat; type: ADME, organism-based; set-up: dose 20 mg/kg, route intravenous; conditions: in vivo

| SMILES | MIC (Enterobacter cloacae) [µg/mL] | MIC (Escherichia coli [1]) [µg/mL] | MIC (Escherichia coli [2]) [µg/mL] | MIC (Klebsiella aerogenes) [µg/mL] | MIC (Pseudomonas aeruginosa [3]) [µg/mL] | MIC (Salmonella typhimurium) [µg/mL] | MIC (Staphylococcus aureus [4]) [µg/mL] | MIC (Staphylococcus aureus [5]) [µg/mL] | MIC (Staphylococcus aureus [6]) [µg/mL] | MIC (Streptococcus pyogenes) [µg/mL] | Stability (Sus scrofa) [%] | MIC (Pseudomonas aeruginosa [7]) [µg/mL] | half-life [8] [min] | clearance [9] [mL/min/kg] | AUC [10] [ng·h/mL] |
| --- | --- | --- | --- | --- | --- | --- | --- | --- | --- | --- | --- | --- | --- | --- | --- |
| Cc1ccnc(SC[C@@H]2C[C@H](SC3=C(C(=O)O)N4C(=O)[C@H]([C@@H](C)O)[C@H]4[C@H]3C)CN2)n1 | 0.098 (≈ 0.217 µM) | 0.049 (≈ 0.109 µM) | 0.098 (≈ 0.217 µM) | 0.098 (≈ 0.217 µM) | 6.25 (≈ 13.9 µM) | 0.098 (≈ 0.217 µM) | 0.098 (≈ 0.217 µM) | 0.025 (≈ 0.0555 µM) | 0.049 (≈ 0.109 µM) | 0.007 (≈ 0.0155 µM) | 122 | 25 (≈ 55.5 µM) | – | – | – |
| C[C@@H](O)[C@H]1C(=O)N2C(C(=O)O)=C(S[C@@H]3CN[C@H](CSc4ncccn4)C3)[C@H](C)[C@H]12 | 0.049 (≈ 0.112 µM) | 0.049 (≈ 0.112 µM) | 0.049 (≈ 0.112 µM) | 0.098 (≈ 0.224 µM) | 0.391 (≈ 0.896 µM) | 0.098 (≈ 0.224 µM) | 0.049 (≈ 0.112 µM) | 0.025 (≈ 0.0573 µM) | 0.025 (≈ 0.0573 µM) | < 0.002 | 89 | 3.12 (≈ 7.16 µM) | – | – | – |
| C[C@@H](O)[C@H]1C(=O)N2C(C(=O)O)=C(S[C@@H]3CN[C@H](CSc4cnns4)C3)[C@H](C)[C@H]12 | 0.013 (≈ 0.0294 µM) | 0.013 (≈ 0.0294 µM) | 0.013 (≈ 0.0294 µM) | 0.025 (≈ 0.0565 µM) | 0.195 (≈ 0.441 µM) | 0.025 (≈ 0.0565 µM) | 0.049 (≈ 0.111 µM) | 0.013 (≈ 0.0294 µM) | 0.025 (≈ 0.0565 µM) | 0.007 (≈ 0.0158 µM) | 167 | 1.56 (≈ 3.53 µM) | 43.1 | 10.2 | 36900 |
| C[C@@H](O)[C@H]1C(=O)N2C(C(=O)O)=C(SCCNC=N)C[C@H]12.O [IMIPENEM] | – | – | – | – | – | – | – | – | – | – | – | – | 3.46 | – | – |
| C[C@@H](O)[C@H]1C(=O)N2C(C(=O)O)=C(S[C@@H]3CN[C@H](CSc4nccc(C(F)(F)F)n4)C3)[C@H](C)[C@H]12 | 0.025 (≈ 0.0495 µM) | 0.025 (≈ 0.0495 µM) | 0.025 (≈ 0.0495 µM) | 0.049 (≈ 0.0971 µM) | 0.781 (≈ 1.55 µM) | 0.049 (≈ 0.0971 µM) | 0.098 (≈ 0.194 µM) | 0.025 (≈ 0.0495 µM) | 0.098 (≈ 0.194 µM) | 0.007 (≈ 0.0139 µM) | – | 50 (≈ 99.1 µM) | – | – | – |
| C[C@@H](O)[C@H]1C(=O)N2C(C(=O)O)=C(S[C@@H]3CN[C@H](CSc4nncn4C)C3)[C@H](C)[C@H]12 | 0.049 (≈ 0.111 µM) | 0.025 (≈ 0.0569 µM) | 0.049 (≈ 0.111 µM) | 0.098 (≈ 0.223 µM) | 0.195 (≈ 0.444 µM) | 0.098 (≈ 0.223 µM) | 0.098 (≈ 0.223 µM) | 0.025 (≈ 0.0569 µM) | 0.049 (≈ 0.111 µM) | 0.013 (≈ 0.0296 µM) | 93 | 1.56 (≈ 3.56 µM) | – | – | – |
| Cc1nnc(SC[C@@H]2C[C@H](SC3=C(C(=O)O)N4C(=O)[C@H]([C@@H](C)O)[C@H]4[C@H]3C)CN2)s1 | 0.013 (≈ 0.0285 µM) | 0.007 (≈ 0.0153 µM) | 0.007 (≈ 0.0153 µM) | 0.025 (≈ 0.0548 µM) | 0.195 (≈ 0.427 µM) | 0.025 (≈ 0.0548 µM) | 0.025 (≈ 0.0548 µM) | 0.007 (≈ 0.0153 µM) | 0.025 (≈ 0.0548 µM) | 0.004 (≈ 0.00876 µM) | 108 | 3.12 (≈ 6.84 µM) | – | – | – |
| C[C@@H](O)[C@H]1C(=O)N2C(C(=O)O)=C(S[C@@H]3CN[C@H](C(=O)N(C)C)C3)[C@H](C)[C@H]12 [MEROPENEM] | 0.025 (≈ 0.0652 µM) | 0.025 (≈ 0.0652 µM) | 0.025 (≈ 0.0652 µM) | 0.049 (≈ 0.128 µM) | 0.049 (≈ 0.128 µM) | 0.049 (≈ 0.128 µM) | 0.195 (≈ 0.509 µM) | 0.098 (≈ 0.256 µM) | 0.195 (≈ 0.509 µM) | 0.013 (≈ 0.0339 µM) | 100 | 0.195 (≈ 0.509 µM) | – | – | – |
| CNC(=O)c1cccnc1SC[C@@H]1C[C@H](SC2=C(C(=O)O)N3C(=O)[C@H]([C@@H](C)O)[C@H]3[C@H]2C)CN1 | 0.049 (≈ 0.0995 µM) | 0.049 (≈ 0.0995 µM) | 0.098 (≈ 0.199 µM) | 0.098 (≈ 0.199 µM) | 1.56 (≈ 3.17 µM) | 0.098 (≈ 0.199 µM) | < 0.049 | 0.025 (≈ 0.0507 µM) | < 0.049 | < 0.002 | – | 12.5 (≈ 25.4 µM) | – | – | – |
| C[C@@H](O)[C@H]1C(=O)N2C(C(=O)O)=C(S[C@@H]3CN[C@H](CSc4ncccc4O)C3)[C@H](C)[C@H]12 | 0.098 (≈ 0.217 µM) | 0.195 (≈ 0.432 µM) | 0.195 (≈ 0.432 µM) | 0.195 (≈ 0.432 µM) | 6.25 (≈ 13.8 µM) | 0.195 (≈ 0.432 µM) | 0.049 (≈ 0.109 µM) | 0.195 (≈ 0.432 µM) | 0.025 (≈ 0.0554 µM) | < 0.002 | – | 25 (≈ 55.4 µM) | – | – | – |
| C[C@@H](O)[C@H]1C(=O)N2C(C(=O)O)=C(S[C@@H]3CN[C@H](CSc4nnnn4C)C3)[C@H](C)[C@H]12 | 0.025 (≈ 0.0567 µM) | 0.025 (≈ 0.0567 µM) | 0.025 (≈ 0.0567 µM) | 0.025 (≈ 0.0567 µM) | 0.195 (≈ 0.443 µM) | 0.025 (≈ 0.0567 µM) | 0.049 (≈ 0.111 µM) | 0.025 (≈ 0.0567 µM) | 0.025 (≈ 0.0567 µM) | 0.004 (≈ 0.00908 µM) | 88 | 0.781 (≈ 1.77 µM) | 11 | – | – |
